Data as given in US20230181700A1 (priority 2021, published 2023).
pIC50: −log10 of the molar value.

System: Vero cells
Type: cell-based
Settings: read-out: IC50 of toxicity

Compound: C[C@@H]1C[C@@H]([C@H](O)CC2CC(=O)NC(=O)C2)C(=O)[C@@H](C)C1 [cyclohexamide]
- pIC50: 6.70
